Converted amounts (≈) assume the structure as drawn.
Columns and labels:
Format in all cases: functional
Bacteria [1] = assay: In vitro antibacterial activity was determined by 2 fold serial agar dilution method in gram negative resistant bacteria
Bacteria [2] = assay: In vitro antibacterial activity was determined by 2 fold serial agar dilution method with multilocular device in gram negative bacteria
[3] = In vitro antibacterial activity was determined by 2 fold serial agar dilution method with multilocular device in gram positive bacteria
[4] = In vitro antibacterial activity was determined by 2 fold serial agar dilution method in gram positive resistant bacteria

| SMILES | MIC (Bacteria [1]) | MIC (Bacteria [2]) | MIC [3] | MIC [4] |
| --- | --- | --- | --- | --- |
| CC1=C(C(=O)O)N2C(=O)[C@@H](NC(=O)C(c3ccccc3)N(C)N)C2SC1 (stereo partly specified) | > 100 µg/mL | 100 µg/mL (≈ 266 µM) | 6.74 µg/mL (≈ 17.9 µM) | 50 µg/mL (≈ 133 µM) |
| NNC(C(=O)N[C@@H]1C(=O)N2C(C(=O)O)=C(Cl)CSC12)c1ccccc1 (stereo partly specified) | 50 µg/mL (≈ 131 µM) | 21.4 µg/mL (≈ 55.9 µM) | 1.33 µg/mL (≈ 3.47 µM) | 31.4 µg/mL (≈ 82 µM) |
| CC(=O)OCC1=C(C(=O)O)N2C(=O)[C@@H](NC(=O)C(c3ccccc3)N(C)N)C2SC1 (stereo partly specified) | > 100 µg/mL | 54.5 µg/mL (≈ 125 µM) | 1.33 µg/mL (≈ 3.06 µM) | 24.9 µg/mL (≈ 57.3 µM) |
| CC1=C(C(=O)O)N2C(=O)[C@@H](NC(=O)C(NN)c3ccccc3)C2SC1 (stereo partly specified) | – | > 100 µg/mL | 12.5 µg/mL (≈ 34.5 µM) | 62.9 µg/mL (≈ 174 µM) |
| CC(=O)OCC1=C(C(=O)O)N2C(=O)[C@@H](NC(=O)C(NN)c3ccccc3)C2SC1 (stereo partly specified) | > 100 µg/mL | 73.4 µg/mL (≈ 175 µM) | 1.68 µg/mL (≈ 4 µM) | 31.5 µg/mL (≈ 74.9 µM) |
| N[C@@H](C(=O)N[C@@H]1C(=O)N2C(C(=O)O)=C(Cl)CS[C@H]12)c1ccccc1 [CEFACLOR ANHYDROUS] | 7.8 µg/mL (≈ 21.2 µM) | 1 µg/mL (≈ 2.72 µM) | 0.16 µg/mL (≈ 0.435 µM) | 15.7 µg/mL (≈ 42.7 µM) |
| CC1=C(C(=O)O)N2C(=O)[C@@H](NC(=O)[C@H](N)c3ccccc3)[C@H]2SC1 [CEPHALEXIN ANHYDROUS] | 7.8 µg/mL (≈ 22.5 µM) | 5.7 µg/mL (≈ 16.4 µM) | 0.58 µg/mL (≈ 1.67 µM) | 24.9 µg/mL (≈ 71.7 µM) |
| CC(=O)OCC1=C(C(=O)O)N2C(=O)[C@@H](NC(=O)[C@H](N)c3ccccc3)[C@H]2SC1 [CEPHALOGLYCIN] | 79.3 µg/mL (≈ 196 µM) | 8.5 µg/mL (≈ 21 µM) | 1.33 µg/mL (≈ 3.28 µM) | 19.8 µg/mL (≈ 48.8 µM) |

Source: ChEMBL document CHEMBL1122399, “Synthesis and antibacterial activities of new (alpha-hydrazinobenzyl)cephalosporins” (1983)
